Data: patent US11976042B1, “9-(5-bromo-2-hydroxyphenyl)-10-[3-(dimethylamino)propyl]-3,4,6,7,9,10-hexahydroacridine-1,8(2H,5H)-dione as an antimicrobial compound” (KING FAISAL UNIVERSITY, priority 2023, dated 2024)

How the values were obtained:
Test in all cases: antimicrobial activity by agar dilution
Format in all cases: cell-based
Details in all cases: after 10, 20, 40 and 60 minutes at all dilutions 1:100 to 1:800
[1] = system: E. Coli
Method: (§1) The antimicrobial properties of the synthesized compound 9-(5-bromo-2-hydroxyphenyl)-10-[3-(dimethylamino)propyl]-3,4,6,7,9,10-hexahydroacridine-1,8(2H,5H)-dione were studied by the method of agar dilution. Test solutions of each compound were prepared in a concentration of 1% using dimethylformamide as a solvent. Then they were diluted in a physiological solution to obtain the final experimental dilutions 1:100, 1:200, 1:400, and 1:800. The effect of these substances were compared with furacillin in a controllable study. The testing microbes used were gram positive bacteria St. Aereus, gram negative bacteria E. Coli and Ps. Aeruginosa, and Candida albicans fungi. The experiments used for this survey were meat-pentonlu agar (EPA) for cultivation of bacteria and Saburo environment for fungi. Each experiment used 1 ml of test solution on each plate 500 min. Add 2 drops of emulsified with microbes feel. All experimental samples were taken from the agar after 10, 20, 40, 60 minutes in the environment on the basis of Patrk planted. Bacteria were cultivated at a temperature of 37° C. for 1 day and the mushroom was kept in a thermostat for […] at a temperature of 28° C. Then the results were checked.

[2] = system: Candida albicans
Method: as §1

[3] = system: Ps. Aeruginosa
Method: as §1

[4] = system: St. Aereus
Method: as §1

Measured: inhibition activity

CN(C)CCCN1C2=C(C(=O)CCC2)C(c2cc(Br)ccc2O)C2=C1CCCC2=O [9-(5-bromo-2-hydroxyphenyl)-10-[3-(dimethylamino)propyl]-3,4,6,7,9,10-hexahydroacridine-1,8(2H,5H)-dione]
highest inhibition activity: all assays above
